Consider four compounds from patent publication US4638051A, “Brain imaging radiopharmaceuticals” (The Johns Hopkins University, priority 1985, dated 1987).

The data set is described as follows: Biodistribution studies in ICR white mice: percent of injected dose of Tc-99m complex in brain tissue. The note with it: for % of Dose of Tc99m Complex in Brain, 5 min / % of Dose of Tc99m Complex in Brain, 10 min / % of Dose of Tc99m Complex in Brain, 15 min: ICR white mice, i.v. (tail), 0.5 to 2 microcuries, saline. The data set is classed as in vivo. On the procedure: Biodistribution studies have been conducted with several complexes according to the present invention, in ICR white mice. A saline solution containing 0.5 to 2 microcuries of the Tc-99m complex was injected intravenously (tail), and the mice were sacrificed after 5, 10 or 15 minutes. The percent of the injected dose which was present in brain tissue was measured. […] On the other hand, the data reveal that the compounds containing the alkyl-amino group according to the present invention are retained in the brain for much longer times. For example, after 15 minutes, the concentration of compound 3 is 15 times that of compound 1.

For the compound `CC(C)(S)CNCCNCC(C)(C)S` [Compound 1, reference compound], the “% of Dose of Tc99m Complex in Brain, 5 min” value (shortened to “% of Dose … in Brain, 5 min”) is listed as 1.02 % of Dose; the “% of Dose of Tc99m Complex in Brain, 10 min” value is given as 0.30 % of Dose; the “% of Dose of Tc99m Complex in Brain, 15 min” value (shortened to “% of Dose … 15 min”) is 0.03 % of Dose.
For `CN(C)CCN(CCNCC(C)(C)S)CC(C)(C)S` [Compound 2] the same measures were 0.89 % of Dose, 0.30 % of Dose and 0.42 % of Dose.
Regarding `CC(C)NCCN(CCNCC(C)(C)S)CC(C)(C)S` [Compound 3], the “% of Dose … in Brain, 5 min” value was 0.64 % of Dose; the “% of Dose of Tc99m Complex in Brain, 10 min” value was 0.49 % of Dose; the “% of Dose … 15 min” value is recorded as 0.49 % of Dose. Moreover, for the setting “after 15 minutes, mice, i.v., relative to compound 1”, the “concentration in brain relative to that of compound 1” value is recorded as 15 times.
As for `CC(C)(S)CNC(C)(C)CN(CCN1CCCCC1)CC(C)(C)S` [Compound 9], the “% of Dose … in Brain, 5 min” value is 2.19 % of Dose and the “% of Dose … 15 min” value was 1.01 % of Dose.
